Assay results as given in PMC2790015 (Journal of molecular biology, 2009).

Legend:
DNA alone = assay: DNA hybridization controls for the AraC experiments; assay type: binding; conditions: compared with no sugar; sugars 10 mM; data not shown
adjacent DNA half-sites = conditions: addition of arabinose; cited from earlier work
[1] = system: K4 and E4 heterodimerizing coiled-coil peptides; assay: DNA-assisted binding assay; conditions: GC to AT substituted DNA versus original DNA sequence
[2] = biological target: T1, K4 coiled-coil peptide (modified: N-terminal Met, Val to Trp, C-terminal Ala), unconjugated; assay: ITC
T1 peptide: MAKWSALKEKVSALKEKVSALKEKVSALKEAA

Q: What does the source list for `O[C@@H]1[C@@H](O)[C@@H](O)CO[C@H]1O` [arabinose]?
A: effect of sugar on DNA hybridization (DNA alone): DNA hybridization is not affected; increase in amount of AraC capable of binding to adjacent DNA half-sites (adjacent DNA half-sites): 40 -fold

Q: Which “effect of sugar on DNA hybridization” value (DNA alone) does the source give for `OC[C@H]1OC(O)[C@H](O)[C@@H](O)[C@@H]1O` (some centres unmarked) [glucose] here?
A: DNA hybridization is not affected

Q: For “GC to AT substituted DNA sequences: K4 and E4 conjugated to GC to AT substituted 5’-TTTTTTGGGTTATAC-3’ and 5’-TTTTTTGTATAAC-3’ (K4 and E4 peptides conjugated)”, which “decrease in the interaction between the conjugates” value [1] is on record?
A: 3 -fold

Q: With MAEWSALEKEVSALEKEVSALEKEVSALEKAA [E4 coiled-coil peptide (modified: N-terminal Met, Val to Trp, C-terminal Ala), unconjugated] as the molecule, how does the Kd [2] read?
A: ~1000 nM
